Data taken from US7405036B2, “Process for reducing pathogens in a biological sample and removing a sample pellet from a sample tube” (priority 2001, dated 2008).

How the values were obtained:
[1] = test system: Campylobacter fetus; type: cell-based
[2] = test system: Mycoplasma species; settings: 200 μg/ml; cited from earlier work
[3] = test system: fresh semen of domestic bulls and gaur bulls; type: cell-based, Bos taurus, Bos gaur
[4] = test system: bovine (Bos gaurus) sperm; experiment: Percoll density gradient with trypsin, viability of cryopreserved sperm
[5] = test system: cultured cells and embryos; settings: up to 1000 μg/ml; cited from earlier work

CC[C@H]1OC(=O)C[C@@H](O)[C@H](C)[C@@H](O[C@@H]2O[C@H](C)[C@@H](O[C@H]3C[C@@](C)(O)[C@@H](O)[C@H](C)O3)[C@H](N(C)C)[C@H]2O)[C@@H](CC=O)C[C@@H](C)C(=O)/C=C/C(C)=C/[C@@H]1CO[C@@H]1O[C@H](C)[C@@H](O)[C@@H](OC)[C@H]1OC [tylosin]
sensitivity of C. fetus to antibiotic [1]: intermediate
elimination of Mycoplasma species from bovine embryos [2]: capable of eliminating
embryo viability [2]: without effecting embryo viability

CN[C@@H]1[C@H](O)[C@H](NC)[C@H]2O[C@@]3(O)C(=O)C[C@@H](C)O[C@H]3O[C@@H]2[C@H]1O [spectinomycin]
sensitivity of C. fetus to antibiotic [1]: intermediate

trypsin
acrosomal integrity [3]: nor any significant damage
overall motility [3]: no significant reduction
viability (vital staining) [3]: no reduction
effect on sperm of increasing trypsin concentration [4]: no detrimental effects

CCC[C@@H]1C[C@@H](C(=O)N[C@@H]([C@H]2O[C@H](SC)[C@H](O)[C@@H](O)[C@H]2O)[C@@H](C)O)N(C)C1 [lincomycin]
sensitivity of C. fetus to antibiotic [1]: sensitive

NC[C@H]1O[C@H](O[C@H]2[C@H](O)[C@@H](O[C@H]3O[C@H](CO)[C@@H](O)[C@H](N)[C@H]3O)[C@H](N)C[C@@H]2N)[C@H](O)[C@@H](O)[C@@H]1O [kanamycin]
toxicity to cultured cells and embryos [5]: very little toxicity
